Results published in publication PMC12390684 (Viruses, 2025).

Target: IN-GCN2 interaction (6xHis-IN / GST-GCN2) (UniProt P04585+Q9P2K8)
Experiment: biochemical
Assay type: binding, HIV-1 IN; human GCN2
Details: screen; for IN-GCN2 interaction (%): single dose 100 µM, single replicate, residual AlphaLISA signal normalized to DMSO control

Sequence of IN-GCN2 interaction (6xHis-IN / GST-GCN2) (Q9P2K8 192-1024, other chains not shown): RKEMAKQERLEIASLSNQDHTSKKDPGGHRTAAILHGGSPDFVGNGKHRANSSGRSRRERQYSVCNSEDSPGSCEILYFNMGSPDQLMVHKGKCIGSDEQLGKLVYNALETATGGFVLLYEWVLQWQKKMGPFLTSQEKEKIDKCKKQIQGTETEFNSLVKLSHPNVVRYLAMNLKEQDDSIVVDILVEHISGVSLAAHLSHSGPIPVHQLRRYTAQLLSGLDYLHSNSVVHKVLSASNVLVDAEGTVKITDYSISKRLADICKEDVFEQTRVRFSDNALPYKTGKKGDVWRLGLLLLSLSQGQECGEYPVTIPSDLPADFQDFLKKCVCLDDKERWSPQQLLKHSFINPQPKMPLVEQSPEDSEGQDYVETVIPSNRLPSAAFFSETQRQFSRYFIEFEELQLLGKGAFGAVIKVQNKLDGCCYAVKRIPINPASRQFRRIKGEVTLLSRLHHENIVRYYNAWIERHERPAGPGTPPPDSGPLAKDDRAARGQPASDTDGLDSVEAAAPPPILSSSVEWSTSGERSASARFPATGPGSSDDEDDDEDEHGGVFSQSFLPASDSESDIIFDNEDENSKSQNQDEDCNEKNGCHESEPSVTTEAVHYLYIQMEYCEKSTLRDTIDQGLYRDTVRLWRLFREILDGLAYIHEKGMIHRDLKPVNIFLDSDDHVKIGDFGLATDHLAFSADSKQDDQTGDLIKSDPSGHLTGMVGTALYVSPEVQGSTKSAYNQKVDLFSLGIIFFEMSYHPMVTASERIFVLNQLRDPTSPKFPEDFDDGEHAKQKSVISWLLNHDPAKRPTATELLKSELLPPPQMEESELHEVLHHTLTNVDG

SMILES | IN-GCN2 interaction (%) | also measured
O=[N+]([O-])[O-].c1ccc2c(c1)[nH]c1c2cc[n+]2cc3c(cc12)CCCC3 [NSC21728] | 107.16% | –
C=C1C(=O)O[C@H]2C[C@@]3(C)O[C@@H]3CC/C(C)=C/[C@@H](OC(C)=O)[C@H]12 [NSC22070] | 135.82% | –
O=c1oc2cc(O)ccc2c2oc3cc(O)ccc3c12 [NSC22842] | 123.61% | –
CCC(C)c1cnc(CC(C)C)c(=O)n1O (centres unmarked) [NSC22939] | 88.97% | –
O=c1ccn([C@H]2C[C@H](O)[C@@H](CO)O2)c(=O)[nH]1 [NSC23615] | 82.13% | –
COC1=CC(=O)OC(CCc2ccc3c(c2)OCO3)C1 (centres unmarked) [NSC23878] | 70.38% | –
COc1cc([C@@H]2c3cc4c(c(O)c3C[C@H]3COC(=O)[C@@H]32)OCO4)cc(OC)c1OC [NSC24819] | 89.45% | –
C/C(=C\CC1=C(O)c2ccccc2C(=O)C1=O)CO [NSC24872] | 132.67% | –
O=C1C[C@@H]2OCC=C3C[N+]4([O-])CC[C@]56c7ccccc7N1[C@H]5[C@H]2[C@H]3C[C@@H]64 (some centres unmarked) [NSC24951] | 106.44% | –
COC1[C@H](O)[C@@H](O)C(O)[C@H](O)[C@H]1O (some centres unmarked) [NSC26254] | 90.47% | –
C=C(C)[C@H]1Cc2c(ccc3c2O[C@@H]2COc4cc(OC)c(OC)cc4[C@@H]2C3=O)O1 [NSC26258] | 55.12% | –
O=P1(N(CCCl)CCCl)NCCCO1 (centres unmarked) [NSC26271] | 117.66% | –
CC1(C)CCC2=C(O1)c1ccccc1C(=O)C2=O [NSC26326] | 107.59% | –
CC1(C)CCC2=C(O1)C(=O)c1ccccc1C2=O [NSC26327] | 99.02% | –
NC(=O)NCCC[C@H](N)C(=O)O [NSC27425] | 90.90% | –
O=C([O-])c1nc(=O)[nH]c(=O)[nH]1.[K+] [NSC28841] | 85.56% | –
COC(=O)C1C2CC3c4[nH]c5cc(OC)ccc5c4CCN3CC2CC(OC(=O)CCc2cc(OC)c(OC)c(OC)c2)C1OC (centres unmarked) [NSC29854] | 63.08% | –
O=C(O)/C(O)=C(/O)C(=O)O [NSC30238] | 100.21% | –
COc1c(O)cc2oc3cc(O)c(CC=C(C)C)c(O)c3c(=O)c2c1CC=C(C)C [NSC30552] | 60.59% | –
C/C=C(/C)C(=O)O[C@H]1CCN2CC=C(COC(=O)[C@@](O)([C@H](C)OC)C(C)(C)O)[C@H]12 [NSC30625] | 106.60% | –
COc1ccc([C@@H]2CC(=O)c3c(O)cc(O[C@@H]4O[C@H](CO[C@@H]5O[C@@H](C)[C@H](O)[C@@H](O)[C@H]5O)[C@@H](O)[C@H](O)[C@H]4O)cc3O2)cc1O [NSC31048] | 142.54% | –
O=C1c2ccccc2C(=O)c2c1cc(O)c(O)c2O [NSC31754] | 87.55% | –
CCCCCc1cc(O)cc2c1Oc1cc(O)cc(C(=O)CCCC)c1C(=O)O2 [NSC31867] | 101.08% | –
CN1CCc2cc3c(cc2[C@H]1[C@@H]1OC(=O)c2c1ccc1c2OCO1)OCO3 [NSC32192] | 122.62% | –

SMILES | IN-GCN2 interaction (%) | also measured
CC(=O)O[C@@]1(C)C[C@@H]([C@H](O)CC2CC(=O)NC(=O)C2)C(=O)[C@@H](C)C1 [NSC32743] | 79.33% | –
CC[C@H]1CN2CCc3cc(OC)c(OC)cc3[C@@H]2C[C@@H]1C[C@H]1NCCc2cc(O)c(OC)cc21 [NSC32944] | 81.67% | –
COc1ccc2c(c1O)-c1c(OC)c(OC)cc3c1[C@H](C2)N(C)CC3 [NSC32979] | 119.47% | –
COc1cc(/C=C/C(=O)CC(=O)/C=C/c2ccc(O)c(OC)c2)ccc1O [NSC32982] | 15.01% | –
COc1cc2c(cc1OC)C(=O)Cc1ccc3c(c1CN(C)CC2)OCO3 [NSC32984] | 91.01% | –
COc1cc2c(c(OC)c1OC)-c1ccc(OC)c(=O)cc1[C@@H](NC(=O)c1ccccc1)CC2 [NSC33410] | 67.25% | –
COC(=O)CC[C@@H](C)[C@H]1CC[C@@]2(C)[C@@H]3C(=O)C[C@H]4C(C)(C)[C@@H](OC(C)=O)CC[C@]4(C)[C@H]3C(=O)C[C@]12C [NSC34202] | 97.47% | –
[O-][N+]12CCCCC1CCCC2CO (centres unmarked) [NSC34552] | 80.42% | –
COc1c2c(c3c(c1OC)c(=O)c1ccccc1n3C)OCO2 [NSC34758] | 105.30% | –
COc1ccc(CC2=NCCc3cc(OC)c(OC)cc32)cc1OC.O=C(O)C(=O)O [NSC35550] | 110.36% | –
CC1CCC2C(C)C3C(CC4C5CC=C6CC(OC7OC(CO)C(O)C(OC8OC(CO)C(O)C(O)C8O)C7OC7OC(C)C(O)C(O)C7O)CCC6(C)C5CCC43C)N2C1.Cl (centres unmarked) [NSC35611] | 109.39% | –
O=c1c(O)cccc2cc(O)c(O)c(O)c12 [NSC35676] | 61.12% | –
COc1c2c(cc(O)c1C(C)=O)OC(C)(C)C=C2 [NSC36294] | 109.95% | –
COc1ccc2c(c1OC)CN1CCc3cc4c(cc3C1C2)OCO4 (centres unmarked) [NSC36351] | 108.61% | effect on IN-GCN2 interaction in the screen, in words (100 µM, inactive = within 10% of the DMSO control): inactive
O=C1c2cc(O)c(O)cc2OC(c2ccc(O)c(O)c2)C1O (centres unmarked) [NSC36398] | 108.22% | –
COc1cc([C@@H]2c3cc4c(cc3[C@H](O)[C@H]3COC(=O)[C@@H]23)OCO4)cc(OC)c1OC [NSC36407] | 109.04% | –
C=C1C(=O)OC2CC1C(OC(C)=O)C/C(C)=C/CC/C(C)=C\CCC2(C)O (centres unmarked) [NSC36437] | – | IN-GCN2 interaction (%) (listed as 36437): 73.91%
CC1(C)O[C@H]2CC(=O)OC[C@]23[C@H]2CC[C@@]4(C)[C@H](c5ccoc5)OC(=O)[C@H]5O[C@]54[C@]2(C)C(=O)C[C@@H]13 [NSC36508] | 112.07% | –
C[C@@H]1C[C@H]2OC(=O)[C@@]3(C)CCC[C@@](C)([C@@H]23)[C@@]1(O)CCc1ccoc1 [NSC36693] | 92.00% | –
CCOC(=O)CCCCCCCCCCCCC1C=CCC1 (centres unmarked) [NSC38010] | 104.59% | –
CO[C@@H]1[C@H](O)C[C@@H](O[C@H]2[C@@H](C)O[C@@H](Oc3cc(O)c4c(O)c5c(cc4c3)C[C@@H]([C@H](OC)C(=O)[C@@H](O)[C@@H](C)O)[C@H](O[C@H]3C[C@@H](O[C@H]4C[C@@H](O[C@H]6C[C@](C)(O)[C@@H](OC(=O)C(C)C)[C@H](C)O6)[C@H](O)[C@@H](C)O4)[C@H](O)[C@@H](C)O3)C5=O)C[C@H]2OC(C)=O)O[C@@H]1C [NSC38270] | 113.18% | –
CC1=C2[C@H]3OC(=O)[C@@H](C)[C@@H]3CC[C@@]2(C)C=C/C1=N\O [NSC42038] | 112.40% | –
CC(C)c1ccc(O)c(=O)cc1 [NSC43338] | – | IN-GCN2 interaction (%) (listed as 43338): 100.42%
CC(C)=CCc1ccc(O)c(=O)cc1C(C)C [NSC43339] | 101.87% | –

SMILES | IN-GCN2 interaction (%) | also measured
CN1[C@@H]2CC[C@H]1CC(O)C2 (some centres unmarked) [NSC43871] | 99.50% | –
O=P(O)(O)OC1OC(CO)C(O)C(O)C1O (centres unmarked) [NSC44138] | 105.48% | –
O=C1C(O)=C(c2ccccc2)C(=O)C(O)=C1c1ccccc1 [NSC44175] | 117.13% | –
COC1=C(N)C(=O)c2nc(-c3nc(C(=O)O)c(C)c(-c4ccc(OC)c(OC)c4O)c3N)ccc2C1=O [NSC45383] | 84.72% | –
COC(=O)c1nc(-c2ccc3c(n2)C(=O)C(N)=C(OC)C3=O)c(N)c(-c2ccc(OC)c(OC)c2O)c1C [NSC45384] | 82.84% | –
COc1c2occc2cc2ccc(=O)oc12 [NSC45923] | 121.17% | –
CC(C)C[C@H](N)C(=O)O [NSC46709] | 84.16% | –
C=C1C(=O)OC2CC1C(OC(C)=O)C/C(C)=C/CC/C(C)=C\CCC2(C)O (centres unmarked) [NSC46728] | – | IN-GCN2 interaction (%) (listed as 46728): 93.27%
COc1cc2c(cc1OC)C(O)C(O)(CO)C(C(=O)O)C2c1cc(OC)c(OC)c(OC)c1 (centres unmarked) [NSC50131] | 78.06% | –
COc1cc2c(cc1OC)C(c1cc(OC)c(OC)c(OC)c1)C1(O)C(=O)OCC1(O)C2 (centres unmarked) [NSC50132] | 86.33% | –
O=C1CC(c2ccccc2)Oc2ccccc21 (centres unmarked) [NSC50393] | 103.95% | –
CO[C@@H]1[C@@H](O[C@@H]2O[C@H](C)[C@@H](O[C@H]3C[C@@](C)(O)[C@@H](OC(=O)CC(C)C)[C@H](C)O3)[C@H](N(C)C)[C@H]2O)[C@@H](CC=O)C[C@@H](C)C(=O)/C=C/[C@@H]2O[C@H]2C[C@@H](C)OC(=O)C[C@H]1OC(C)=O [NSC51001] | 99.20% | –
COc1cc(O)c(C(=O)/C=C/c2ccccc2)c(OC)c1 [NSC51351] | 51.53% | –
CO[C@@]12[C@H](COC(N)=O)C3=C(C(=O)C(C)=C(N)C3=O)N1C[C@H]1[C@@H]2N1C (some centres unmarked) [NSC56410] | 73.33% | –
CCN1C[C@]2(COC)[C@H](O)C[C@H](OC)[C@@]34[C@@H]5C[C@@]6(O)[C@H](OC(=O)c7ccccc7)[C@@H]5[C@@](OC(C)=O)([C@@H]([C@H](OC)[C@H]23)[C@@H]14)[C@@H](O)[C@@H]6OC [NSC56464] | 148.00% | –
C1CCC(NC2CCCCC2)CC1.COC1C(OC(=O)/C=C/C=C/C=C/C=C/C(=O)O)CCC2(CO2)C1C1(C)OC1CC=C(C)C (centres unmarked) [NSC58368] | 95.05% | –
O=C(O)C1(O)C[C@@H](O)C(O)[C@H](O)C1 (some centres unmarked) [NSC59258] | – | IN-GCN2 interaction (%) (listed as 59258): 71.78%
CSC[S@@+]([O-])CC(CO)NC(=O)/C=C/c1c(C)[nH]c(=O)[nH]c1=O (some centres unmarked) [NSC59729] | 102.04% | –
COc1cc2c3c(c4ccc(OC)c(OC)c4c2cc1OC)CN1CCC[C@@H]1C3 [NSC60387] | 110.26% | –
C[N+]1(C)C2CC(OC(=O)C(CO)c3ccccc3)CC1C1OC12 (centres unmarked) [NSC61809] | 93.88% | –
COc1ccc(-c2c(C)c(C(=O)O)nc(-c3ccc4c(O)c(OC)c5c(c4n3)=NC(C)(C)N=5)c2N)c(O)c1OC [NSC62709] | 123.77% | –
CNC[C@H](O)c1ccc(O)c(O)c1 [NSC62786] | 108.20% | –
